The NIST ThermoML archive (doi:10.1016/j.jct.2004.07.027)

Test: mn = molality of the nth substance listed, in mol/kg
Settings: 350 kPa, Liquid, Extra sensitive DSC

C1COCCOCCOCCOCCOCCO1 [1,4,7,10,13,16-hexaoxacyclooctadecane] + O
Settings	apparent molar heat capacity [J/K/mol]
338.15 K, m1 = 0.01001	925.2
338.15 K, m1 = 0.02001	920.5
338.15 K, m1 = 0.03002	920.9
338.15 K, m1 = 0.0401	927.9
338.15 K, m1 = 0.04995	928.1
338.15 K, m1 = 0.06015	927.8
338.15 K, m1 = 0.08002	927.2
338.15 K, m1 = 0.1224	926.44
338.15 K, m1 = 0.1472	926.89
338.15 K, m1 = 0.1935	925.61
338.15 K, m1 = 0.2925	924.48
343.15 K, m1 = 0.01001	932.5
343.15 K, m1 = 0.02001	929.1
343.15 K, m1 = 0.03002	929.3
343.15 K, m1 = 0.0401	936.1
343.15 K, m1 = 0.04995	936.3
343.15 K, m1 = 0.06015	936.3
343.15 K, m1 = 0.08002	935.5
343.15 K, m1 = 0.1224	934.88
343.15 K, m1 = 0.1472	935.27
343.15 K, m1 = 0.1935	934.03
343.15 K, m1 = 0.2925	932.93
348.15 K, m1 = 0.01001	939.9
348.15 K, m1 = 0.02001	936.3
348.15 K, m1 = 0.03002	936.4
348.15 K, m1 = 0.0401	942.7
348.15 K, m1 = 0.04995	943.1
348.15 K, m1 = 0.06015	943.5
348.15 K, m1 = 0.08002	942.4
348.15 K, m1 = 0.1224	941.88
348.15 K, m1 = 0.1472	942.17
348.15 K, m1 = 0.1935	941.03
348.15 K, m1 = 0.2925	939.88
353.15 K, m1 = 0.01001	946.2
353.15 K, m1 = 0.02001	942
353.15 K, m1 = 0.03002	942.4
353.15 K, m1 = 0.0401	949
353.15 K, m1 = 0.04995	949.2
353.15 K, m1 = 0.06015	949
353.15 K, m1 = 0.08002	948.1
353.15 K, m1 = 0.1224	947.6
353.15 K, m1 = 0.1472	947.8
353.15 K, m1 = 0.1935	946.84
353.15 K, m1 = 0.2925	945.53
358.15 K, m1 = 0.01001	951.4
358.15 K, m1 = 0.02001	946.9
358.15 K, m1 = 0.03002	947.4
358.15 K, m1 = 0.0401	954.1
358.15 K, m1 = 0.04995	954
358.15 K, m1 = 0.06015	953.6
358.15 K, m1 = 0.08002	952.9
358.15 K, m1 = 0.1224	952.29
358.15 K, m1 = 0.1472	952.42
358.15 K, m1 = 0.1935	951.41
358.15 K, m1 = 0.2925	949.82
363.15 K, m1 = 0.01001	956.3
363.15 K, m1 = 0.02001	950.6
363.15 K, m1 = 0.03002	951.5
363.15 K, m1 = 0.0401	957.7
363.15 K, m1 = 0.04995	957.7
363.15 K, m1 = 0.06015	957.3
363.15 K, m1 = 0.08002	956.5
363.15 K, m1 = 0.1224	955.71
363.15 K, m1 = 0.1472	955.85
363.15 K, m1 = 0.1935	954.72
363.15 K, m1 = 0.2925	952.93
368.15 K, m1 = 0.01001	958.6
368.15 K, m1 = 0.02001	953.5
368.15 K, m1 = 0.03002	954.4
368.15 K, m1 = 0.0401	959.7
368.15 K, m1 = 0.04995	960.2
368.15 K, m1 = 0.06015	959.9
368.15 K, m1 = 0.08002	959.2
368.15 K, m1 = 0.1224	958.26
368.15 K, m1 = 0.1472	958.12
368.15 K, m1 = 0.1935	957
368.15 K, m1 = 0.2925	954.88
373.15 K, m1 = 0.01001	959.1
373.15 K, m1 = 0.02001	955.6
373.15 K, m1 = 0.03002	955.9
373.15 K, m1 = 0.0401	960.6
373.15 K, m1 = 0.04995	961.7
373.15 K, m1 = 0.06015	961.5
373.15 K, m1 = 0.08002	960.8
373.15 K, m1 = 0.1224	959.82
373.15 K, m1 = 0.1472	959.52
373.15 K, m1 = 0.1935	958.21
373.15 K, m1 = 0.2925	955.86
378.15 K, m1 = 0.01001	960.1
378.15 K, m1 = 0.02001	955.9
378.15 K, m1 = 0.03002	957.7
378.15 K, m1 = 0.0401	960.8
378.15 K, m1 = 0.04995	962.6
378.15 K, m1 = 0.06015	962.6
378.15 K, m1 = 0.08002	961.5
378.15 K, m1 = 0.1224	960.5
378.15 K, m1 = 0.1472	960.13
378.15 K, m1 = 0.1935	958.64
378.15 K, m1 = 0.2925	956.01
383.15 K, m1 = 0.01001	960.3
383.15 K, m1 = 0.02001	956.3
383.15 K, m1 = 0.03002	959.2
383.15 K, m1 = 0.0401	959.6
383.15 K, m1 = 0.04995	962.7
383.15 K, m1 = 0.06015	962.5
383.15 K, m1 = 0.08002	961.5
383.15 K, m1 = 0.1224	960.35
383.15 K, m1 = 0.1472	959.95
383.15 K, m1 = 0.1935	958.25
383.15 K, m1 = 0.2925	955.31
388.15 K, m1 = 0.01001	958.8
388.15 K, m1 = 0.02001	955.7
388.15 K, m1 = 0.03002	959.9
388.15 K, m1 = 0.0401	956.7
388.15 K, m1 = 0.04995	962.3
388.15 K, m1 = 0.06015	961.8
388.15 K, m1 = 0.08002	960.8
388.15 K, m1 = 0.1224	959.65
388.15 K, m1 = 0.1472	959.06
388.15 K, m1 = 0.1935	957.22
388.15 K, m1 = 0.2925	954.17
393.15 K, m1 = 0.01001	958.8
393.15 K, m1 = 0.02001	954.7
393.15 K, m1 = 0.03002	967.1
393.15 K, m1 = 0.0401	951.9
393.15 K, m1 = 0.04995	961.7
393.15 K, m1 = 0.06015	961.2
393.15 K, m1 = 0.08002	960.2
393.15 K, m1 = 0.1224	958.56
393.15 K, m1 = 0.1472	957.61
393.15 K, m1 = 0.1935	955.72
393.15 K, m1 = 0.2925	952.32
